# Experimental data as given in patent US8822484B2, “Fused thiazolo and oxazolo pyrimidinones” (Torrent Pharmaceuticals Limited, priority 2009, dated 2014).
# Tests used:
# Format in all cases: cell-based
# erythropoietin = assay: In vitro erythropoietin induction (ELISA of culture supernatant); conditions: Hep3B cell line, relative to vehicle control; for EPO fold induction: 16 hours
# Description: Hep3B cell line (ATCC HB8064) was employed. Induction of erythropoietin was carried out for the indicated dose of compounds for 16 hours duration. At the end of 16 hours, cell culture medium was collected and centrifuged to remove any debris. Supernatant obtained was analyzed for erythropoietin by ELISA (R&D systems, USA). The results were expressed as fold induction as compared to vehicle control.
# VEGF = assay: In vitro induction of vascular endothelial growth factor (ELISA of culture supernatant); conditions: Hep3B cell line, 200 uM, 16 hours, relative to vehicle control
# Description: Hep3B cell line (ATCC HB8064) was employed. […] Supernatant obtained was analyzed for VEGF by ELISA (R&D systems, USA).
# adrenomedullin mRNA = assay: In vitro induction of adrenomedullin (mRNA, real-time PCR); conditions: Hep3B cell line, 200 uM, 6 hours, normalized to 18S rRNA, relative to vehicle control
# Description: Hep3B cell line (ATCC HB8064) was employed. […] At the end of 6 hours, cells were lysed and total RNA was isolated. Expression of adrenomedullin mRNA along-with expression of 18S rRNA was monitored by real-time PCR. Adrenomedullin mRNA expression was normalized relative to the expression of 18S rRNA. The results were expressed as fold induction of adrenomedullin mRNA relative to vehicle treated control.
Structure (SMILES),EPO fold induction (erythropoietin; 200 uM),also measured
"CC1(C)CCc2c(sc3nc(O)c(C(=O)NCC(=O)[O-])c(=O)n23)C1.CC1(C)CCc2c(sc3nc(O)c(C(=O)NCC(=O)[O-])c(=O)n23)C1.[Na+].[Na+] [Compound 80, [(2-Hydroxy-7,7-dimethyl-4-oxo-5,6,7,8-tetrahydro-4H-9-thia-1,4a-diaza-fluorene-3-carbonyl)-amino]-acetic acid, Disodium salt]",++++ (9-16 fold),–
"O=C(O)CCNC(=O)c1c(O)nc2sc3c(n2c1=O)CCC3 [Compound 14, 3-[(2-Hydroxy-4-oxo-7,8-dihydro-4H,6H-cyclopenta[4,5]thiazolo[3,2-a]pyrimidine-3-carbonyl)-amino]-propionic acid]",++ (2-4 fold),–
"COc1cc(OC)cc(C(=O)N2CCc3c(sc4nc(O)c(C(=O)NCC(=O)O)c(=O)n34)C2)c1 [Compound 41, {[7-(3,5-Dimethoxy-benzoyl)-2-hydroxy-4-oxo-5,6,7,8-tetrahydro-4H-9-thia-1,4a,7-triaza-fluorene-3-carbonyl]-amino}-acetic acid]",–,"fold induction at 200 µM (erythropoietin; Homo sapiens, Hep3B, 16 h, 200 uM, read-out: EPO fold induction): 2 to 4"
"O=C(O)CNC(=O)c1c(O)nc2sc3c(n2c1=O)CCC3 [Compound 11, [(2-Hydroxy-4-oxo-7,8-dihydro-4H,6H-cyclopenta[4,5]thiazolo[3,2-a]pyrimidine-3-carbonyl)-amino]-acetic acid]",+++ (5-8 fold),–
"O=C([O-])CNC(=O)c1c(O)nc2sc3c(n2c1=O)CCCCC3.O=C([O-])CNC(=O)c1c(O)nc2sc3c(n2c1=O)CCCCC3.[Na+].[Na+] [Compound 82, [(2-Hydroxy-4-oxo-6,7,8,9-tetrahydro-4H,5H-10-thia-1,4a-diaza-benzo[a]azulene-3-carbonyl)-amino]-acetic acid, Disodium salt]",–,VEGF (Fold induction) (VEGF): ++ (2-4 fold induction of VEGF); EPO fold induction (erythropoietin; 50 uM): ++++ (9-16 fold); Adrenomedullin mRNA (fold induction) (adrenomedullin mRNA): +++ (5-8 fold)
"C[C@@H](NC(=O)c1c(O)nc2sc3c(n2c1=O)CCC(C)(C)C3)C(=O)O (single isomer, unassigned) [Compound 44, 2-[(2-Hydroxy-7,7-dimethyl-4-oxo-5,6,7,8-tetrahydro-4H-9-thia-1,4a-diaza-fluorene-3-carbonyl)-amino]-propionic acid (D-isomer)]",+ (<2 fold),–
"CC1(C)CCc2c(sc3nc(O)c(C(=O)N[C@H](C(=O)O)c4ccccc4)c(=O)n23)C1 (single isomer, unassigned) [Compound 55, [(2-Hydroxy-7,7-dimethyl-4-oxo-5,6,7,8-tetrahydro-4H-9-thia-1,4a-diaza-fluorene-3-carbonyl)-amino]-phenyl-acetic acid, L-isomer]",+ (<2 fold),–
"CC(C)[C@H](NC(=O)c1c(O)nc2sc3c(n2c1=O)CCC(C)(C)C3)C(=O)O (single isomer, unassigned) [Compound 43, 2-[(2-Hydroxy-7,7-dimethyl-4-oxo-5,6,7,8-tetrahydro-4H-9-thia-1,4a-diaza-fluorene-3-carbonyl)-amino]-3-methyl-butyric acid (L-isomer)]",+ (<2 fold),–
